Measurements: US6706663B2, “Herbicidal 3-heterocyclic substituted benzisothiazole and benzisoxazole compounds” (Wyeth, priority 2000, dated 2004)

What was measured:
[1] = tested on: GLXMAW (Soybean, Williams); assay: Preemergence herbicidal evaluation; assay type: in vivo, Glycine max, (L.) Merr. cv Williams; details: preemergence, rated 4-5 weeks after treatment
[2] = tested on: MOOVA (Monochoria vaginalis); assay: Flooded paddy, preemergence weed control; assay type: in vivo, Presl.; details: rated 3-4 weeks after treatment, 0-9 rating scale
Method in brief: (§1)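 Seeds or propagating organs were sown in the top 0.5 cm of silt loam soil, flooded, and the water kept 1.5 to 3 cm above the soil surface throughout. Plants were grown in the greenhouse and rated visually on a 0-9 scale against a control.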

SETVI (Setaria viridis) [3] = assay: Postemergence herbicidal evaluation; assay type: in vivo, (L.) Beau
Method in brief: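 Postemergence foliar spray on two-week-old seedlings, dose equivalent to about 0.0040 to 1.000 kg/ha. Ratings use a 0-9 visual scale relative to control at four to five weeks.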

[4] = tested on: ECHORC (Echinochloa oryzoides); assay: Flooded paddy, preemergence weed control; assay type: in vivo, Echinochloa oryzoides (Ard.) Fritsch.; details: rated 3-4 weeks after treatment, 0-9 rating scale
Method in brief: as §1

ZEAMX (Corn, Field) = assay: Preemergence herbicidal evaluation; assay type: in vivo, Zea mays, L.; details: preemergence, rated 4-5 weeks after treatment
CYPIR (Cyperus iria) = assay: Flooded paddy, preemergence weed control; assay type: in vivo; details: rated 3-4 weeks after treatment, 0-9 rating scale
Method in brief: as §1

[5] = tested on: ECHCG (Echinochloa crus-galli); assay: Preemergence herbicidal evaluation; assay type: in vivo, (L.) Beau; details: preemergence, rated 4-5 weeks after treatment
Method in brief: (§2)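 Visual 0–9 rating versus control (stand, vigor, malformation, size, chlorosis, overall appearance), scored four to five weeks post-treatment. Preemergence spray of aqueous acetone solution onto freshly seeded soil cups; plants grown under conventional greenhouse care.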

SETVI (Setaria viridis) [6] = assay: Preemergence herbicidal evaluation; assay type: in vivo, (L.) Beau; details: preemergence, rated 4-5 weeks after treatment
Method in brief: as §2

[7] = tested on: IPOHE (Ipomoea hederacea); assay: Postemergence herbicidal evaluation; assay type: in vivo, (L.) Jacq.
Method in brief: (§3)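 Seedlings grown about two weeks in flats, sprayed, then kept under standard greenhouse care. Rated visually 4–5 weeks after treatment on a 0–9 scale (stand, vigour, malformation, size, chlorosis, overall appearance) relative to untreated control; repeat tests averaged.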

[8] = tested on: TRZAWR (Wheat, Winter, cv Riband); assay: Postemergence herbicidal evaluation; assay type: in vivo, Triticum aestivum
Method in brief: as §3

| SMILES | GLXMAW preemergence herbicidal rating ([1]; Rate 0.0620 kg/ha) | GLXMAW preemergence herbicidal rating ([1]; Rate 0.1250 kg/ha) | GLXMAW preemergence herbicidal rating ([1]; Rate 0.2500 kg/ha) | herbicidal rating, MOOVA ([2]; rate 0.0080 kg/ha) | herbicidal rating, MOOVA ([2]; rate 0.0320 kg/ha) | herbicidal rating, MOOVA ([2]; rate 0.1250 kg/ha) | Postemergence herbicidal rating, SETVI (SETVI (Setaria viridis) [3]; rate 0.0320 kg/ha) | Postemergence herbicidal rating, SETVI (SETVI (Setaria viridis) [3]; rate 0.0620 kg/ha) | herbicidal rating, ECHORC ([4]; rate 0.0080 kg/ha) | herbicidal rating, ECHORC ([4]; rate 0.0320 kg/ha) | herbicidal rating, ECHORC ([4]; rate 0.1250 kg/ha) | ZEAMX preemergence herbicidal rating (ZEAMX (Corn, Field); Rate 0.0620 kg/ha) | ZEAMX preemergence herbicidal rating (ZEAMX (Corn, Field); Rate 0.1250 kg/ha) | ZEAMX preemergence herbicidal rating (ZEAMX (Corn, Field); Rate 0.2500 kg/ha) | herbicidal rating, CYPIR (CYPIR (Cyperus iria); rate 0.0080 kg/ha) | herbicidal rating, CYPIR (CYPIR (Cyperus iria); rate 0.0320 kg/ha) | herbicidal rating, CYPIR (CYPIR (Cyperus iria); rate 0.1250 kg/ha) | ECHCG preemergence herbicidal rating ([5]; Rate 0.0620 kg/ha) | ECHCG preemergence herbicidal rating ([5]; Rate 0.1250 kg/ha) | ECHCG preemergence herbicidal rating ([5]; Rate 0.2500 kg/ha) | other results |
| --- | --- | --- | --- | --- | --- | --- | --- | --- | --- | --- | --- | --- | --- | --- | --- | --- | --- | --- | --- | --- | --- |
| CC(=O)N1CCSC1c1nsc2ccc(-n3c(=O)cc(C(F)(F)F)n(C)c3=O)cc12 (stereo not drawn) [Compound 29, 3-acetyl-2-[5-[3,6-dihydro-3-methyl-2,6-dioxo-4-(trifluoromethyl)-1(2H)-pyrimidinyl]-1,2-benzisothiazol-3-yl]thiazolidine] | 6.5 | 7.0 | 9.0 | 0.0 | 9.0 | 9.0 | 0.0 | 5.0 | 0.0 | 7.0 | 9.0 | 5.5 | 7.0 | 7.0 | 0.0 | 7.0 | 9.0 | 5.5 | 6.5 | 8.0 | SETVI preemergence herbicidal rating (SETVI (Setaria viridis) [6]; Rate 0.0620 kg/ha): 6.5; SETVI preemergence herbicidal rating (SETVI (Setaria viridis) [6]; Rate 0.1250 kg/ha): 7.5; SETVI preemergence herbicidal rating (SETVI (Setaria viridis) [6]; Rate 0.2500 kg/ha): 9.0; Postemergence herbicidal rating, IPOHE ([7]; rate 0.0320 kg/ha): 9.0; Postemergence herbicidal rating, IPOHE ([7]; rate 0.0620 kg/ha): 9.0; Postemergence herbicidal rating, TRZAWR ([8]; rate 0.0320 kg/ha): 4.5; Postemergence herbicidal rating, TRZAWR ([8]; rate 0.0620 kg/ha): 4.5 |
| Cn1c(C(F)(F)F)cc(=O)n(-c2ccc3snc(C4SCCN4C(=O)c4ccccc4)c3c2)c1=O (stereo not drawn) [Compound 30, 3-benzoyl-2-[5-[3,6-dihydro-3-methyl-2,6-dioxo-4-(trifluoromethyl)-1(2H)-pyrimidinyl]-1,2-benzisothiazol-3-yl]thiazolidine] | 1.0 | 0.0 | 5.0 | 0.0 | 8.5 | 9.0 | 0.0 | 4.0 | 3.0 | 4.0 | 9.0 | 0.5 | 3.5 | 5.5 | 0.0 | 7.0 | 9.0 | 0.0 | 4.0 | 5.0 | SETVI preemergence herbicidal rating (SETVI (Setaria viridis) [6]; Rate 0.0620 kg/ha): 1.0; SETVI preemergence herbicidal rating (SETVI (Setaria viridis) [6]; Rate 0.1250 kg/ha): 8.0; SETVI preemergence herbicidal rating (SETVI (Setaria viridis) [6]; Rate 0.2500 kg/ha): 9.0; Postemergence herbicidal rating, IPOHE ([7]; rate 0.0320 kg/ha): 7.0; Postemergence herbicidal rating, IPOHE ([7]; rate 0.0620 kg/ha): 9.0; Postemergence herbicidal rating, TRZAWR ([8]; rate 0.0320 kg/ha): 4.5; Postemergence herbicidal rating, TRZAWR ([8]; rate 0.0620 kg/ha): 4.5 |
| Cn1c(C(F)(F)F)cc(=O)n(-c2ccc3snc(C4OCCS4)c3c2)c1=O (stereo not drawn) [Compound 31, 1-methyl-3-[3-(1,3-oxathiolan-2-yl)-1,2-benzisothiazol-5-yl]-6-(trifluoromethyl)uracil] | 8.5 | 7.3 | 9.0 | 5.0 | 9.0 | 9.0 | 3.0 | 7.0 | 3.0 | 8.0 | 9.0 | 4.7 | 6.3 | 8.5 | 0.0 | 9.0 | 9.0 | 4.7 | 8.7 | 9.0 | SETVI preemergence herbicidal rating (SETVI (Setaria viridis) [6]; Rate 0.0620 kg/ha): 7.7; SETVI preemergence herbicidal rating (SETVI (Setaria viridis) [6]; Rate 0.1250 kg/ha): 9.0; SETVI preemergence herbicidal rating (SETVI (Setaria viridis) [6]; Rate 0.2500 kg/ha): 9.0; Postemergence herbicidal rating, IPOHE ([7]; rate 0.0320 kg/ha): 9.0; Postemergence herbicidal rating, IPOHE ([7]; rate 0.0620 kg/ha): 9.0; Postemergence herbicidal rating, TRZAWR ([8]; rate 0.0320 kg/ha): 5.0; Postemergence herbicidal rating, TRZAWR ([8]; rate 0.0620 kg/ha): 5.5 |
